From patent publication US9295624B2, “Amide derivative and whitening agent” (AJINOMOTO CO. INC., priority 2009, dated 2016)
Read-outs that look alike come from different tables or passages of the source.

How the values were obtained:
B16 melanom [1] = test: Melanin production suppression test; format: cell-based; settings: B16 melanoma cells, 3 days incubation, absorbance at 450 nm of medium, control = 100%, read-out: 50% melanin production-suppressive concentration IC50
Description: B16 melanom (purchased from Dainippon Sumitomo Pharma Co., Ltd.) was cultured in DMEM (Dulbecco's Modified Eagle Medium, high glucose, containing 10% serum). After confluent, the cells were trypsinized and seeded in a 96-well plate. On the following day, after adhesion of the cells to the plate, the medium was replaced with DMEM containing each evaluation sample (control (no sample addition), sample of each Production Example) at a given evaluation concentration (diluted from […] according to sample), and the cells were incubated for 3 days. The 96-well plate was shaken in a plateshaker for 5 minutes, the absorbance at 450 nm was measured by a microplatereader (Benchmark microplatereader, manufactured by BIORAD), and the amount of melanin in the medium in each well was compared. The absorbance at 3 days after addition of a given concentration of each sample was shown in relative percentage based on the measurement value (absorbance) of control (no sample addition) as 100%. As Comparative Example, a similar test was performed using kojic acid (KoA), 4-hexylresorcinol, CS (N-(p-coumaroyl)serotonin or N-[2-(5-hydroxy-1H-indol-3-yl)ethyl]-3-(4-hydroxyphenyl)-2-propenamide) and FS (N-feruloylcoumaroylserotonin or N-[2-(5-hydroxy-1H-indol-3-yl)ethyl]-3-(4-hydroxy-3-methoxyphenyl-2-propenamide). The results are shown in FIGS. 1 to 5. The concentration necessary for suppressing production of melanin in each sample by 50%, based on the amount of melanin in the control as 100%, was calculated as 50% melanin production-suppressive concentration IC50 (μM). The results are shown in Table 2.
Kojic acid (KoA) used was purchased from Sigma-Aldrich Japan K.K., 4-n-hexylresorcinol used was purchased from TOKYO CHEMICAL INDUSTRY CO., LTD., and CS and FS used were synthesized by Ajinomoto Co., Inc.

B16 melanom [2] = test: Cytotoxicity test (neutral red assay); format: cell-based; settings: neutral red assay after melanin test, absorbance at 540 nm
Description: After measurement of the absorbance in the melanin production suppression test of Experimental Example 1, the evaluation sample solution was removed from the plate, and each well was rinsed with DMEM (200 μl, high glucose, containing 10% serum). A medium containing NR (neutral red) was added to each well at 200 μl/well, and the plate was left standing for 2 hours at 37° C., 5% CO2 under a saturated vapor. The medium was removed, and a washing fixative solution (mixture of equal amounts of 2 wt % calcium chloride solution and 2 wt % formalin solution) was added at 200 μl/well. After 1 minute, the washing fixative solution was removed. An NR extract (acetic acid-ethanol, 200 μl/well) was added, and the mixture was shaken in a plateshaker for 15 minutes. NR uptake by viable cells was examined by measuring the absorbance of the NR extract at 540 nm by a microplatereader (Benchmark microplatereader, manufactured by BIORAD). The cytotoxicity of each sample was calculated as a relative percentage of the absorbance of NR extract of the cells added with a given concentration of each sample to the measurement value (absorbance) of a control NR extract (no sample) as 100%.

Compound | IC50 (B16 melanom [1]; Mus musculus, 72 h) | further results
CCCCCCc1ccc(O)cc1O [4-hexylresorcinol, reference compound] | 23.5 µM | 
O=C(C=Cc1ccc(O)cc1)NCCc1c[nH]c2ccc(O)cc12 [CS, N-[2-(5-hydroxy-1H-indol-3-yl)ethyl]-3-(4-hydroxyphenyl)-2-propenamide, reference compound] | 28.5 µM | 
O=C(/C=C/c1ccc(O)cc1O)NCCc1c[nH]c2ccc(O)cc12 [Example 4, N-[2-(5-hydroxy-1H-indol-3-yl)ethyl]-3-(2,4-dihydroxyphenyl)-2-propenamide] | 10.7 µM | 
O=C(/C=C/c1ccc(O)cc1)NCCc1c[nH]c2ccccc12 [Example 13] | 21.5 µM | 
Cc1cc(/C=C/C(=O)NCCc2c[nH]c3ccc(O)cc23)ccc1O [Example 17, N-[2-(5-hydroxy-1H-indol-3-yl)ethyl]-3-(3-methyl-4-hydroxyphenyl)-2-propenamide] | 14.6 µM | 
COc1ccc(CCNC(=O)/C=C/c2ccc(O)cc2)cc1 [Example 24] | 33.3 µM | 
O=C(/C=C/c1ccc(O)cc1O)NCCc1c[nH]c2ccccc12 [Example 30] | 17.1 µM | 
O=C(NCCc1c[nH]c2ccc(O)cc12)c1cccc(O)c1O [Example 32] |  | cytotoxicity (NR uptake by viable cells) (B16 melanom [2]): showed cytotoxicity
O=C(NCCc1c[nH]c2ccc(O)cc12)c1ccc(O)cc1O [Example 33] |  | cytotoxicity (NR uptake by viable cells) (B16 melanom [2]): showed cytotoxicity
O=C(NCCc1c[nH]c2ccc(O)cc12)c1cc(O)cc(O)c1 [Example 36] | 22.4 µM | 
COc1cc(C=CC(=O)NCCc2c[nH]c3ccc(O)cc23)ccc1O [FS, reference compound] |  | IC50 (B16 melanom [1]): 42.4 µM
O=C(NCCc1c[nH]c2ccc(O)cc12)c1ccc(O)c(O)c1 [Reference Example 2, reference compound] | 1.9 µM | 
O=c1cc(CO)occ1O [kojic acid, reference compound] | 315 µM | 
